Values quoted from earlier work, collected in publication PMC7559897, “Designed Antimicrobial Peptides Against Trauma-Related Cutaneous Invasive Fungal Wound Infections” (Journal of Fungi, 2020).

Test system: S. aureus
Conditions: subinhibitory concentrations, growth at higher concentrations; cited from earlier work
From the text: The rapid destruction of pathogenic cells by dAMPs infers a theoretical reduced likelihood of developing bacterial resistance. However, to confirm this, dAMPs were serially passaged against Candida and against both P. aeruginosa and S. aureus at subinhibitory concentrations to ascertain whether resistance, assessed by growth at higher concentrations, occurs. Resistance was not observed.

CCC[C@@H]1C[C@@H](C(=O)N[C@@H]([C@H]2O[C@H](SC)[C@H](O)[C@@H](O)[C@H]2O)[C@H](C)Cl)N(C)C1 [clindamycin]
resistance during serial passaging against S. aureus: strong resistance
